Data as given in article PMC9329436, “Optimization of the 4-anilinoquin(az)oline scaffold as epidermal growth factor receptor (EGFR) inhibitors for chordoma utilizing a toxicology profiling assay platform” (Scientific Reports, 2022).
Read-outs that look alike come from different tables or passages of the source.

Experiments:
Type in all cases: biochemical
[1] = molecular target: T1, 320 wild-type protein kinases (Homo sapiens, UniProt O15146); settings: MUSK, singlicate
T1 sequence (O15146 24-869): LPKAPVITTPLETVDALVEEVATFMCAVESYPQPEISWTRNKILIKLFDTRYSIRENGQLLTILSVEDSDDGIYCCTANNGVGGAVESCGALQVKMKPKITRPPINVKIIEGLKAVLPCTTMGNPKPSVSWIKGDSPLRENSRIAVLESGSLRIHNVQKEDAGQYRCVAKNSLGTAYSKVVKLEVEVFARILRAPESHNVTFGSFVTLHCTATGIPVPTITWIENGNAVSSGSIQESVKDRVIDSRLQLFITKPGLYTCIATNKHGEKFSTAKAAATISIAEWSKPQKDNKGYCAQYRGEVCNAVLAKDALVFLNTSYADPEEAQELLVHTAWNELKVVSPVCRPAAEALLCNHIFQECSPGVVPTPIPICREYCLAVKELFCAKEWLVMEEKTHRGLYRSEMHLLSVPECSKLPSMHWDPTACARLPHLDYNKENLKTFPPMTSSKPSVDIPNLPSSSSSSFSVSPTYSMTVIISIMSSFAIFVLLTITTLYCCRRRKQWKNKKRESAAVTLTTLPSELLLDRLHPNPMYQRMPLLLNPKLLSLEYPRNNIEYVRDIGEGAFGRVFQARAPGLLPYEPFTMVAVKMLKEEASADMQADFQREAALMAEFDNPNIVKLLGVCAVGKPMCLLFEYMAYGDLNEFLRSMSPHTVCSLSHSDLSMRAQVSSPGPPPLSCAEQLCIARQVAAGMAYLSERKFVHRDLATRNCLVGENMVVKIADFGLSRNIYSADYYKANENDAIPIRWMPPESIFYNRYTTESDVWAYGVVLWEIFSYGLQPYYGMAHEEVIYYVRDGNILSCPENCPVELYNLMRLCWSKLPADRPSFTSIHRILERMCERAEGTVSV
Text: (§1) Table S4. Profiling of two compounds at two concentrations against 320 wild-type protein kinases; singlicate measurement; Residual activities (% of control).

[2] = molecular target: 320 wild-type protein kinases (Homo sapiens, UniProt P27448); settings: singlicate
Text: as §1

[3] = molecular target: T2, 320 wild-type protein kinases (Homo sapiens, UniProt P36888); settings: singlicate
T2 sequence (P36888 27-993): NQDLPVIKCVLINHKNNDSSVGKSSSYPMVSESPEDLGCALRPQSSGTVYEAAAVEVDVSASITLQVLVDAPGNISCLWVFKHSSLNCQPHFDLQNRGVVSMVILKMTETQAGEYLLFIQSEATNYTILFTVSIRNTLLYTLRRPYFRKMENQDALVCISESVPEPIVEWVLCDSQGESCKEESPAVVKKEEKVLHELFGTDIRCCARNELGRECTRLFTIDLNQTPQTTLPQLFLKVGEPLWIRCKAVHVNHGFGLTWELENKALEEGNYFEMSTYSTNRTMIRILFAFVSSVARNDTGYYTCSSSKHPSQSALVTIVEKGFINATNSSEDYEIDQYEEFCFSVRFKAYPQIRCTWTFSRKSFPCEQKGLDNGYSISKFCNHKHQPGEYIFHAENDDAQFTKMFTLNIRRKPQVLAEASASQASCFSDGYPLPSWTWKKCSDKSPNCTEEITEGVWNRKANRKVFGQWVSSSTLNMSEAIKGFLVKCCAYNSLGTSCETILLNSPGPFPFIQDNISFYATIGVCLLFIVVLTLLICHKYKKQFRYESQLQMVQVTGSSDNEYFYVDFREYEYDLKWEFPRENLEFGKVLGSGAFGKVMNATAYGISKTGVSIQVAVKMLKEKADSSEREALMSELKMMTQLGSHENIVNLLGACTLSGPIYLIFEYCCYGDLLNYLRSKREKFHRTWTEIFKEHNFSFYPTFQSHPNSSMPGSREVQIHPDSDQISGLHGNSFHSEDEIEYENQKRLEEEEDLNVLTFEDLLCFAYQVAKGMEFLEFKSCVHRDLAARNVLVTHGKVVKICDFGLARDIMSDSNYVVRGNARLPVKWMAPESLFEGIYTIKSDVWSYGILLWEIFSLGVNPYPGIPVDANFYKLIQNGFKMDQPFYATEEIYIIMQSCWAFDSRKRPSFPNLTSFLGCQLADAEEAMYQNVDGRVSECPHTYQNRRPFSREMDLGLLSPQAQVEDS
Text: as §1

[4] = molecular target: 320 wild-type protein kinases (Homo sapiens, UniProt Q13464); settings: kinase ROCK1, singlicate
Text: as §1

[5] = molecular target: 320 wild-type protein kinases (Homo sapiens, UniProt Q86UE8); settings: kinase TLK2, singlicate
Text: as §1

[6] = molecular target: 320 wild-type protein kinases (Homo sapiens, UniProt Q86Z02); settings: singlicate
Text: as §1

[7] = molecular target: T3, 320 wild-type protein kinases (Homo sapiens, UniProt Q9H093); settings: kinase SNARK, singlicate
T3 sequence (Q9H093 1-628): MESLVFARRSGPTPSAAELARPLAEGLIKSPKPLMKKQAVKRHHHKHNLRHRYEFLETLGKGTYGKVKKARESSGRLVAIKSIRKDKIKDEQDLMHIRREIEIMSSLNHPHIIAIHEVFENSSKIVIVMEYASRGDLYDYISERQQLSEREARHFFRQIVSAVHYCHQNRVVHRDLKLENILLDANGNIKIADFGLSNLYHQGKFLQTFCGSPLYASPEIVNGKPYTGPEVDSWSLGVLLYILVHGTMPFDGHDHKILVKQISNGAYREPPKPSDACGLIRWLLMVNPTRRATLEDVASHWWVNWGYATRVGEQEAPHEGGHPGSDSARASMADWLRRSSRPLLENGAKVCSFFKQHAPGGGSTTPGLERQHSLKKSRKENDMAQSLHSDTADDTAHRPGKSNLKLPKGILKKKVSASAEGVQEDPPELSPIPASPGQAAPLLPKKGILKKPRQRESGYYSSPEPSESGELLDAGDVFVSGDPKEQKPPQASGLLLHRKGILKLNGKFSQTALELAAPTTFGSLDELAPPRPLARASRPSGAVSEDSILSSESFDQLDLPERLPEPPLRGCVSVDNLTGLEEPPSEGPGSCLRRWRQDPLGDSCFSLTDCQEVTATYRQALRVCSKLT
Text: as §1

Sequence of 320 wild-type protein kinases (Homo sapiens, UniProt Q13464) (Q13464 whole entry): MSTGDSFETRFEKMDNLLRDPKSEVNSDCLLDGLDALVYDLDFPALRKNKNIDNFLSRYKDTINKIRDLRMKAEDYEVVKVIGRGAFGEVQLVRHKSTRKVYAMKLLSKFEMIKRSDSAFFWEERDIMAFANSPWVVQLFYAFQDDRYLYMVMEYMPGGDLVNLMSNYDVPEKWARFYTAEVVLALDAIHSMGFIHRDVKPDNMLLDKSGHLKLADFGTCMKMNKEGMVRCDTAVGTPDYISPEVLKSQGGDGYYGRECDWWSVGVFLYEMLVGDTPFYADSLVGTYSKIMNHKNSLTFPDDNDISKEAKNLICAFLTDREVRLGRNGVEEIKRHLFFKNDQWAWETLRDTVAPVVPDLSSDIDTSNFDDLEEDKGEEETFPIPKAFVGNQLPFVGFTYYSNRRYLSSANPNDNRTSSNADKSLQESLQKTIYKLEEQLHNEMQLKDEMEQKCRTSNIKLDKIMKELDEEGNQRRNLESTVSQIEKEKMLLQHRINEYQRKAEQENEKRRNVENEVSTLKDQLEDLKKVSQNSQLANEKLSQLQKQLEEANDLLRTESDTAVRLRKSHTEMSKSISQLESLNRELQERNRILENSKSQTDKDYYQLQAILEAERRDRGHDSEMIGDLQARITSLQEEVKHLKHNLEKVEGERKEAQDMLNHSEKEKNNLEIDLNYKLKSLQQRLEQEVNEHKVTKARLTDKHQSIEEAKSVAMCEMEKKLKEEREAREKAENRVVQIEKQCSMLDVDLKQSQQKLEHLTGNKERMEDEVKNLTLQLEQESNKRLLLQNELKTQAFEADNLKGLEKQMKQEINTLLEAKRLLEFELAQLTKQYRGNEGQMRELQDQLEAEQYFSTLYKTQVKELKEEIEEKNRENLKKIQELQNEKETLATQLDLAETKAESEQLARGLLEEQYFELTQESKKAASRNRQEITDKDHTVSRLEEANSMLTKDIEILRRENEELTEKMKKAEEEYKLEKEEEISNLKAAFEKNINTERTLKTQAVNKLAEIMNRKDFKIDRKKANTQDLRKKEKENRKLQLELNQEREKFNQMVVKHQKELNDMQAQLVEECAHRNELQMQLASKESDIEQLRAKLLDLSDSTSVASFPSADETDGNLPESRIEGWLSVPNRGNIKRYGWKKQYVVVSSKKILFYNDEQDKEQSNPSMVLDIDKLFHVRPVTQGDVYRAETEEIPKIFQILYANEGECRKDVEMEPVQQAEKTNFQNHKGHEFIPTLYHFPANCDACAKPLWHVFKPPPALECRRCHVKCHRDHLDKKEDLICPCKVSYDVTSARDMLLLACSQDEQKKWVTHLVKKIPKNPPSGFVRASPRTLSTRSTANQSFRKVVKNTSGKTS
Sequence of 320 wild-type protein kinases (Homo sapiens, UniProt Q86UE8) (Q86UE8 whole entry): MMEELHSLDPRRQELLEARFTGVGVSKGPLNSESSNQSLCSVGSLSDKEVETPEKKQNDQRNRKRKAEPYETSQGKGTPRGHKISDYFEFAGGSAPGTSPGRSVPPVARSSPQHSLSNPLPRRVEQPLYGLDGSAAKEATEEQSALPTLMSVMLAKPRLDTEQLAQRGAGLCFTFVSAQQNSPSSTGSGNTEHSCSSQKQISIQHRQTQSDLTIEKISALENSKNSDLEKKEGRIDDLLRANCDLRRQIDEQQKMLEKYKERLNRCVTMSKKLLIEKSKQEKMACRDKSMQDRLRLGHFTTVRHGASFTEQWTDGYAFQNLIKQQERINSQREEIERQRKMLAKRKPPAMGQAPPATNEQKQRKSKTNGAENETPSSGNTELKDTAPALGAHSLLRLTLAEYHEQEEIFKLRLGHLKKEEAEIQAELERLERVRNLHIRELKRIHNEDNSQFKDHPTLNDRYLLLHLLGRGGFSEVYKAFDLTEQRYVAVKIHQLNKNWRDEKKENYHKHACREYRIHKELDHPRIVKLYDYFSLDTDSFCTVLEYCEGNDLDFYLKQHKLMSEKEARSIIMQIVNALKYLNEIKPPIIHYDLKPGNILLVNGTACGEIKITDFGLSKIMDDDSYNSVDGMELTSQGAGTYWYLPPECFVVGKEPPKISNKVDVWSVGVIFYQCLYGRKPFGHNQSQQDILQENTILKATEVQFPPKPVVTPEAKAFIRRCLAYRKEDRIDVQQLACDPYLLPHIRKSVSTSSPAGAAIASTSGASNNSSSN
Sequence of 320 wild-type protein kinases (Homo sapiens, UniProt P27448) (P27448 whole entry): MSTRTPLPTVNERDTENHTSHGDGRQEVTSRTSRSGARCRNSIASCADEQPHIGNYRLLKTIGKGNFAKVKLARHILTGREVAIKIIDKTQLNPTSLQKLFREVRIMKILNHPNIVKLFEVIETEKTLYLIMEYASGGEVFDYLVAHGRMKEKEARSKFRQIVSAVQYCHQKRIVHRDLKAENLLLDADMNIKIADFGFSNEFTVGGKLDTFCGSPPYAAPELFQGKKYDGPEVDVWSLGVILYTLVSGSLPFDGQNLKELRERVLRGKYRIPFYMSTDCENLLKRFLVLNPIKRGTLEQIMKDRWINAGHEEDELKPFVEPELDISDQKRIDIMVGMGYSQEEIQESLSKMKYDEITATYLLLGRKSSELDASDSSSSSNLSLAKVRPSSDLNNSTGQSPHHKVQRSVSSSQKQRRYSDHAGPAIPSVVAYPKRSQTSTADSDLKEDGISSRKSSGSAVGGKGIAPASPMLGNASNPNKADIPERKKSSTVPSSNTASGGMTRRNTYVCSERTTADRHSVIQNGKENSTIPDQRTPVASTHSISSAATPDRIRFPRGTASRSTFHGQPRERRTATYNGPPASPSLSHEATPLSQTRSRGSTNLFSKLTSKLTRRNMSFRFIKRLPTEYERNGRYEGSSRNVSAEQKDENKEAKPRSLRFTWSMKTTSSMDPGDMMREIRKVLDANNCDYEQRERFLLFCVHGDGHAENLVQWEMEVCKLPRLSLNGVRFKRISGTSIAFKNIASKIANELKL
Sequence of 320 wild-type protein kinases (Homo sapiens, UniProt Q86Z02) (Q86Z02 whole entry): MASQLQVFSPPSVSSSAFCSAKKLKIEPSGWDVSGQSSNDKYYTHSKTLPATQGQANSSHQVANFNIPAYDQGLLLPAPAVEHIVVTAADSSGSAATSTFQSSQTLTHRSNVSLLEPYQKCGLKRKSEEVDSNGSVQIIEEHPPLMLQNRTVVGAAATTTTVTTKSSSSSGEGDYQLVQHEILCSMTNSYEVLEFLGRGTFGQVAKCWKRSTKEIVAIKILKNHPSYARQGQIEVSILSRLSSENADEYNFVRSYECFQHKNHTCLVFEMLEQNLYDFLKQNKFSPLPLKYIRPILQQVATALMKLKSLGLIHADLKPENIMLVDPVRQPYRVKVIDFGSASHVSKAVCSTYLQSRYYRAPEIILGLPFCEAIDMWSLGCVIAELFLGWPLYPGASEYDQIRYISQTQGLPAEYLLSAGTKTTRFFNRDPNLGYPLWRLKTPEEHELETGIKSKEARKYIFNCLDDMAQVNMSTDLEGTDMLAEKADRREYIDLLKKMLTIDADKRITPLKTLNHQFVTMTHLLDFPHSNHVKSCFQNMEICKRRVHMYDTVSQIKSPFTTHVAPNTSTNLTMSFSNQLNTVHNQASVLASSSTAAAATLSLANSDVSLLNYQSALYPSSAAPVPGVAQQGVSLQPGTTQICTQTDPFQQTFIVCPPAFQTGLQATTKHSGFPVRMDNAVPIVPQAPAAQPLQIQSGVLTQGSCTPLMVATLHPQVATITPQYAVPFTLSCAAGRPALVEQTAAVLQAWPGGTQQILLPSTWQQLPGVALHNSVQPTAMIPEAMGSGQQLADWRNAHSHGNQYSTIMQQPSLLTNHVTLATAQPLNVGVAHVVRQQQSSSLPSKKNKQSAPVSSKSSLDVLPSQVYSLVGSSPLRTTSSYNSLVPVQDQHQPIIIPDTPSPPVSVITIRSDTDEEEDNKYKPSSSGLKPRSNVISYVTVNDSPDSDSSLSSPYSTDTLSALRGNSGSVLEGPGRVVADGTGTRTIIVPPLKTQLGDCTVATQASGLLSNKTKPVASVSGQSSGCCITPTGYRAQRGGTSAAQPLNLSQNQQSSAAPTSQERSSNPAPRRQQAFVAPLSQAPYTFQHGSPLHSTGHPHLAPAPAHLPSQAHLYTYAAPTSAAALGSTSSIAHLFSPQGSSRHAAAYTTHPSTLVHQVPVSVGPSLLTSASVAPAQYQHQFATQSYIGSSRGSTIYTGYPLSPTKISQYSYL

| SMILES | Residual activity ([1]; 1.0E-06 M) | Residual activity ([1]; 1.0E-07 M) | Residual activity ([2]; MARK3, 1.0E-06 M) | Residual activity ([2]; MARK3, 1.0E-07 M) | Residual activity ([3]; FLT3, 1.0E-06 M) | Residual activity ([3]; FLT3, 1.0E-07 M) | Residual activity, ROCK1 ([4]; assay conc. 1.0E-06 M) | Residual activity, ROCK1 ([4]; assay conc. 1.0E-07 M) | Residual activity, TLK2 ([5]; assay conc. 1.0E-06 M) | Residual activity, TLK2 ([5]; assay conc. 1.0E-07 M) | Residual activity ([6]; HIPK1, 1.0E-06 M) | Residual activity ([6]; HIPK1, 1.0E-07 M) | Residual activity, SNARK ([7]; assay conc. 1.0E-06 M) | Residual activity, SNARK ([7]; assay conc. 1.0E-07 M) |
| --- | --- | --- | --- | --- | --- | --- | --- | --- | --- | --- | --- | --- | --- | --- |
| C#Cc1cc(Nc2ncnc3cc(I)ccc23)ccc1Cl [Compound 41] | 96 % of control | 94 % of control | 95 % of control | 97 % of control | 94 % of control | 95 % of control | 91 % of control | 84 % of control | 109 % of control | 117 % of control | 87 % of control | 98 % of control | 83 % of control | 101 % of control |
| C#Cc1cc(Nc2ncnc3cc(OC)c(OC)cc23)ccc1Cl [Compound 45] | 87 % of control | 94 % of control | 100 % of control | 96 % of control | 56 % of control | 88 % of control | 83 % of control | 98 % of control | 103 % of control | 111 % of control | 80 % of control | 79 % of control | 87 % of control | 88 % of control |
